# Experimental data taken from PMC8699473, “An Easily Expandable Multi-Drug LC-MS Assay for the Simultaneous Quantification of 57 Oral Antitumor Drugs in Human Plasma” (Cancers, 2021).
# “And” between values parts separate entries of the source, which are not always exact repeats. Equal values may be shown once.
# Tests used:
# [1] = Plasma concentrations in patients on oral antitumor therapy (LC-MS); assay type: in vivo, human; details: for Measured plasma concentration: 24 h, ±4 h of trough level: no
# Description: The liquid chromatography-mass spectrometer system consisted of a Thermo Scientific Dionex UltiMate^TM 3000 with an integrated and temperature controlled autosampler (Thermo Fisher Scientific, Dreieich, Germany). An Acquity UPLC® BEH C18 column (2.1 × 100 mm, 1.7 µm; Waters, Milford, CT, USA) equipped with an Acquity UPLC® BEH C18 VanGuard^TM Pre-Column (2.1 × 5 mm, 1.7 µm; Waters, Milford, CT, USA) was used for chromatographic separation. The Q-Exactive^TM Focus mass spectrometer (MS) was hyphenated with a heated electrospray ionization (HESI) source (both from Thermo Fisher Scientific, Dreieich, Germany).
# Chromatographic separation was achieved using a gradient elution with water containing 0.5% (v/v) FA (eluent A) and MeOH with 0.1% (v/v) FA (eluent B). The injection volume was 5 µL. The gradient program is shown in Supplement Table S2. The flow rate was 0.5 mL/min with a total run time of 15 min. The column heater was maintained at 50 °C and the autosampler temperature was 4 °C.
# The following MS and HESI settings were maintained for all analyses: Sheath gas, auxiliary gas, and sweep gas flow rates were set to 60, 20, and 0, respectively. The spray voltage was 4000 V. Both capillary and auxiliary gas heater temperatures were set to 400 °C. High-purity nitrogen gas was used for the HESI source gases and for the bath gas of the C-trap. […] The HESI source was configured in positive mode for ionization.
# The stock solutions were stored in glass vials at −80 °C. Aliquots of all stock solutions were combined in ACN (volumes of individual stock solution solvents are negligible) to obtain a standard solution of all analytes with an individual concentration of 200% of the respective trough level (cmin). Eight individual working standards were prepared by stepwise dilution of this standard solution with concentrations from 10 to 200% cmin (shown in Supplement Table S3). Furthermore, the four individual IS stock solutions were combined and diluted to 50 ng/mL with ACN. Calibration and validation standards were prepared by spiking 50 µL pooled human plasma with 10 µL of the respective working solution. Next, 250 µL IS solution (50 ng/mL in ACN) were added and vortexed vigorously. […] Then, 100 µL supernatant were transferred to 300 µL HPLC insert glass vials and diluted with 100 µL eluent (90% A/10% B). For blank samples, 50 µL pooled human plasma were combined with 10 µL ACN (instead of working solution) and prepared as described above. The calibration and validation standards were freshly prepared before every run. Patient plasma samples were prepared as calibration and validation standards (no additional processing step necessary), except for adding 10 µL ACN instead of 10 µL working standard. Before sample preparation, the frozen plasma samples were thawed in absence of light at 4 °C.
# Blood samples were collected over the entire dosing interval from patients treated with an oral anticancer drug as listed in Supplement Table S4. […] A maximum of two samples at two different time points throughout the entire dosing interval were collected per patient. Treatment duration before collection was at least five half-lives (depending on the specific oral anticancer drug). The samples were collected in K3-EDTA tubes.
# A total of 71 blood samples from 39 patients treated with 14 different oral anticancer drugs were collected (see Supplement Table S4 for details). All patients were recruited from independent outpatient clinics associated with the Comprehensive Cancer Center of the University Hospital Erlangen (CCC Erlangen-EMN). Of 71 blood samples, 41 were taken ±4 h of trough level (cmin).
# [2] = Reference trough level (cmin) at steady state; assay type: in vivo, human; details: minimum steady-state plasma concentration, calculated based on cmax; ref supplement [7], [2,5,24], [51]
# [3] = Freeze-thaw stability in spiked pooled human plasma; assay type: physicochemical
# [4] = Autosampler stability of ready for injection samples; assay type: physicochemical, human
# [5] = patient plasma, all samples, r.c. = respective cmin
structure (smiles),measurement,setting,value
C=CC(=O)N1CCC[C@@H](n2nc(-c3ccc(Oc4ccccc4)cc3)c3c(N)ncnc32)C1 [Ibrutinib],Measured plasma concentration,[1]; 420 mg/day,3.2 ng/mL and 4.2 ng/mL
same,Measured plasma concentration,[1]; 560 mg/day,115.2 ng/mL and 139.5 ng/mL
same,Interpatient Coefficient of Variation [%],[1]; patient plasma concentrations,110.0%
same,Median Concentration of All Samples [% of r.c.],[1]; [5],110.1 % of r.c.
same,Min–Max Concentration [% of r.c.],[1]; [5],4.8–211.4 % of r.c.
same,cmin,[2],66 ng/mL
same,Freeze-Thaw Accuracy [%],[3]; validation standard 2xLLOV,100.8%
same,Freeze-Thaw Accuracy [%],[3]; validation standard LLOV,100.2%
same,Freeze-Thaw Accuracy [%],[3]; validation standard MOV,93.3%
same,Freeze-Thaw Accuracy [%],[3]; validation standard ULOV,95.6%
same,"Autosampler (24h, 4°C) Accuracy [%]",[4]; validation standard 2xLLOV,101.4%
same,"Autosampler (72h, 4°C) Accuracy [%]",[4]; validation standard 2xLLOV,100.0%
same,"Autosampler (24h, 4°C) Accuracy [%]",[4]; validation standard LLOV,97.6%
same,"Autosampler (72h, 4°C) Accuracy [%]",[4]; validation standard LLOV,95.8%
same,"Autosampler (24h, 4°C) Accuracy [%]",[4]; validation standard MOV,103.0%
same,"Autosampler (72h, 4°C) Accuracy [%]",[4]; validation standard MOV,103.7%
same,"Autosampler (24h, 4°C) Accuracy [%]",[4]; validation standard ULOV,100.0%
same,"Autosampler (72h, 4°C) Accuracy [%]",[4]; validation standard ULOV,102.6%
